Experimental data published in ChEMBL document CHEMBL1201862, “PubChem BioAssay data set” (2004).
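Results reflect a 48-hour exposure of cells in 96-well plates to compound at five concentrations. The concentration for 50% growth inhibition is given as GI50.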 The source made the active and inactive calls. No stated cut-off is given here; in the data, active = GI50 up to about 1.1 µM and inactive = higher.

Experiments:
Assay in all cases: growth of human tumour cells (NCI), 48 h
[1] = tested on: MDA-N
[2] = tested on: A549
[3] = tested on: SNB-19
[4] = tested on: UACC-62
[5] = tested on: HT-29
[6] = tested on: UACC-257
[7] = tested on: MOLT-4
[8] = tested on: SNB-75
[9] = tested on: MCF7
[10] = tested on: KM12
[11] = tested on: NCI-H23
[12] = tested on: NCI-H460
[13] = tested on: 786-0
[14] = tested on: NCI/ADR-RES
[15] = tested on: ACHN
[16] = tested on: COLO 205
[17] = tested on: Hs-578T
[18] = tested on: SW-620
[19] = tested on: T47D
[20] = tested on: A498

| Structure (SMILES) | GI50 [1] | GI50 [2] | GI50 [3] | GI50 [4] | GI50 [5] | GI50 [6] | GI50 [7] | GI50 [8] | GI50 [9] | GI50 [10] | GI50 [11] | GI50 [12] | GI50 [13] | GI50 [14] | GI50 [15] | GI50 [16] | GI50 [17] | GI50 [18] | GI50 [19] | GI50 [20] |
| --- | --- | --- | --- | --- | --- | --- | --- | --- | --- | --- | --- | --- | --- | --- | --- | --- | --- | --- | --- | --- |
| CSC1C(=O)Nc2ccc3ccccc3c21 (stereo not drawn) | 56.5 µM (inactive) | > 100 µM (inactive) | 89.5 µM (inactive) | 17.5 µM (inactive) | > 100 µM (inactive) | 19 µM (inactive) | 28.1 µM (inactive) | 22.8 µM (inactive) | 38.1 µM (inactive) | 18.6 µM (inactive) | > 100 µM (inactive) | > 100 µM (inactive) | 16.1 µM (inactive) | 29.6 µM (inactive) | 27.4 µM (inactive) | 22.9 µM (inactive) | 15.3 µM (inactive) | 20.8 µM (inactive) | 9.71 µM (inactive) | – |
| C=C[C@@H]1C(CO)=CCC2[C@H]1CCC1C(C)(C)C(=O)CC[C@]21C (stereo partly drawn) | > 100 µM (inactive) | > 100 µM (inactive) | > 100 µM (inactive) | > 100 µM (inactive) | > 100 µM (inactive) | > 100 µM (inactive) | > 100 µM (inactive) | – | > 100 µM (inactive) | > 100 µM (inactive) | > 100 µM (inactive) | > 100 µM (inactive) | > 100 µM (inactive) | > 100 µM (inactive) | > 100 µM (inactive) | > 100 µM (inactive) | > 100 µM (inactive) | > 100 µM (inactive) | > 100 µM (inactive) | > 100 µM (inactive) |
| CC(=O)O[C@H]1CC[C@@]2(C)C(=CC[C@@H]3[C@@H]2CC[C@]2(C)C(=O)/C(=C\c4ccccc4)C[C@@H]32)C1 | > 100 µM (inactive) | > 100 µM (inactive) | > 100 µM (inactive) | > 100 µM (inactive) | > 100 µM (inactive) | > 100 µM (inactive) | 37.8 µM (inactive) | > 100 µM (inactive) | > 100 µM (inactive) | > 100 µM (inactive) | > 100 µM (inactive) | > 100 µM (inactive) | > 100 µM (inactive) | > 100 µM (inactive) | > 100 µM (inactive) | > 100 µM (inactive) | – | > 100 µM (inactive) | > 100 µM (inactive) | > 100 µM (inactive) |
| NCc1ccc(O)c(O)c1 | > 100 µM (inactive) | > 100 µM (inactive) | > 100 µM (inactive) | > 100 µM (inactive) | > 100 µM (inactive) | > 100 µM (inactive) | 27.1 µM (inactive) | > 100 µM (inactive) | > 100 µM (inactive) | > 100 µM (inactive) | > 100 µM (inactive) | > 100 µM (inactive) | > 100 µM (inactive) | > 100 µM (inactive) | > 100 µM (inactive) | > 100 µM (inactive) | – | > 100 µM (inactive) | > 100 µM (inactive) | > 100 µM (inactive) |
| Oc1cn(-c2ccc(Cl)cc2)nc1-c1nnc(Nc2ccccc2)o1 | – | 20.4 µM (inactive) | 20.9 µM (inactive) | 16.6 µM (inactive) | 9.55 µM (inactive) | 21.3 µM (inactive) | – | 20.8 µM (inactive) | 16.9 µM (inactive) | 17.7 µM (inactive) | 14.1 µM (inactive) | 19.9 µM (inactive) | 16.6 µM (inactive) | 14.9 µM (inactive) | 25.6 µM (inactive) | 21.4 µM (inactive) | 24.1 µM (inactive) | 19.1 µM (inactive) | 23 µM (inactive) | 12.6 µM (inactive) |
| Fc1cc(C2=Nn3c(CNc4ccc(Cl)cc4)nnc3S/C2=C\c2ccc(-c3ccc(Cl)cc3)o2)c(Cl)cc1Cl | > 100 µM (inactive) | 35.6 µM (inactive) | 44 µM (inactive) | 13.6 µM (inactive) | 32.8 µM (inactive) | > 100 µM (inactive) | 3.33 µM (inactive) | – | 38.8 µM (inactive) | > 100 µM (inactive) | 81.8 µM (inactive) | 65.3 µM (inactive) | 32.3 µM (inactive) | 6.53 µM (inactive) | 34.9 µM (inactive) | 14.3 µM (inactive) | 46.7 µM (inactive) | > 100 µM (inactive) | 41.7 µM (inactive) | 17.5 µM (inactive) |
| COCC[N+](CCNC(=O)c1cccc2c(N)c3cccc(C)c3nc12)(CCOC)Cc1ccc([N+](=O)[O-])cc1 | 31.1 µM (inactive) | 13.5 µM (inactive) | 40.4 µM (inactive) | 16 µM (inactive) | 18.8 µM (inactive) | 16.9 µM (inactive) | 3.57 µM (inactive) | 27 µM (inactive) | 19.4 µM (inactive) | 14.5 µM (inactive) | 29.8 µM (inactive) | 6.47 µM (inactive) | 19.1 µM (inactive) | 88.3 µM (inactive) | 32.4 µM (inactive) | 16.1 µM (inactive) | 10.8 µM (inactive) | 21.1 µM (inactive) | 18.1 µM (inactive) | – |
| CN1CCN(CN2C(=O)C3C4C=CC(C3C2=O)C2C(=O)N(CN3CCN(C)CC3)C(=O)C42)CC1 (stereo not drawn) | > 57.3 µM (inactive) | > 10 µM (inactive) | > 63.1 µM (inactive) | 35 µM (inactive) | 22.5 µM (inactive) | > 75.2 µM (inactive) | 36.9 µM (inactive) | > 100 µM (inactive) | 27.2 µM (inactive) | 56.5 µM (inactive) | > 49.8 µM (inactive) | > 53.8 µM (inactive) | 54 µM (inactive) | > 60.4 µM (inactive) | > 64.4 µM (inactive) | 54.6 µM (inactive) | > 100 µM (inactive) | 4.97 µM (inactive) | > 68.4 µM (inactive) | – |
| COC(=O)C1C(O)CCC2CN3CCc4c([nH]c5cccc(OC)c45)C3CC21 (stereo not drawn) | > 100 µM (inactive) | > 100 µM (inactive) | > 100 µM (inactive) | > 100 µM (inactive) | > 100 µM (inactive) | > 100 µM (inactive) | > 100 µM (inactive) | > 100 µM (inactive) | > 100 µM (inactive) | > 100 µM (inactive) | > 100 µM (inactive) | > 100 µM (inactive) | > 100 µM (inactive) | – | > 100 µM (inactive) | > 100 µM (inactive) | > 100 µM (inactive) | > 100 µM (inactive) | > 100 µM (inactive) | > 100 µM (inactive) |
| CC1(C)[N+]([O-])=[N+]([O-])C1(Br)c1ccccc1 (stereo not drawn) | > 100 µM (inactive) | > 100 µM (inactive) | > 100 µM (inactive) | > 100 µM (inactive) | 39.3 µM (inactive) | 54.8 µM (inactive) | 45.4 µM (inactive) | > 100 µM (inactive) | 72.9 µM (inactive) | 89.1 µM (inactive) | 80.9 µM (inactive) | 68.2 µM (inactive) | 68.9 µM (inactive) | 43.9 µM (inactive) | > 100 µM (inactive) | > 100 µM (inactive) | > 100 µM (inactive) | > 100 µM (inactive) | > 100 µM (inactive) | – |
| CC(=O)c1sc2c(c1OC(=O)c1ccco1)c(=O)n(-c1ccccc1)c(=S)n2-c1ccccc1 | 24.8 µM (inactive) | 38.2 µM (inactive) | 28.2 µM (inactive) | > 10 µM (inactive) | 6 µM (inactive) | 27.5 µM (inactive) | 19.5 µM (inactive) | 21.8 µM (inactive) | 22.6 µM (inactive) | 21.1 µM (inactive) | 26.9 µM (inactive) | 31 µM (inactive) | 26.7 µM (inactive) | 18.4 µM (inactive) | – | 17.4 µM (inactive) | 2.28 µM (inactive) | 26.6 µM (inactive) | 13 µM (inactive) | – |
| COc1ccc(C2=NN(c3ccccc3)C(c3cc4cc(Br)ccc4nc3Cl)C2)cc1 (stereo not drawn) | 20.8 µM (inactive) | 15.1 µM (inactive) | > 25 µM (inactive) | – | > 25 µM (inactive) | – | > 25 µM (inactive) | > 25 µM (inactive) | – | 11.4 µM (inactive) | > 25 µM (inactive) | – | > 25 µM (inactive) | > 25 µM (inactive) | – | 9.71 µM (inactive) | > 25 µM (inactive) | 24.9 µM (inactive) | > 25 µM (inactive) | – |
| Clc1nc2c(N3CCCC3)nc(N3CCNCC3)nc2[nH]1 | 17.6 µM (inactive) | 17.9 µM (inactive) | 17.6 µM (inactive) | 17.4 µM (inactive) | 17.4 µM (inactive) | 19.3 µM (inactive) | 20.9 µM (inactive) | 20.1 µM (inactive) | 17.7 µM (inactive) | 18.1 µM (inactive) | 16.9 µM (inactive) | 17.6 µM (inactive) | 17.8 µM (inactive) | 37.2 µM (inactive) | 19.9 µM (inactive) | 16.4 µM (inactive) | > 100 µM (inactive) | 21.2 µM (inactive) | 16.9 µM (inactive) | – |
| COc1cc2c(c(OC)c1OC)-c1cccc(=O)cc1C(NC(C)=O)CC2 (stereo not drawn) | < 0.01 µM (active) | 0.317 µM (active) | 0.748 µM (active) | 0.0474 µM (active) | 0.0721 µM (active) | 0.0607 µM (active) | 0.0553 µM (active) | 0.0391 µM (active) | < 0.01 µM (active) | 0.0346 µM (active) | 0.0596 µM (active) | 0.123 µM (active) | 0.136 µM (active) | – | 0.953 µM (active) | 0.054 µM (active) | > 100 µM (inactive) | 0.0408 µM (active) | > 100 µM (inactive) | 0.332 µM (active) |
| O=C(Cc1ccccc1)NN1C(=O)/C(=C\c2ccc([N+](=O)[O-])cc2)S/C1=N\c1ccccc1 | – | > 100 µM (inactive) | > 100 µM (inactive) | 61.1 µM (inactive) | > 100 µM (inactive) | > 100 µM (inactive) | 55 µM (inactive) | > 100 µM (inactive) | 63.2 µM (inactive) | > 100 µM (inactive) | 68.5 µM (inactive) | > 100 µM (inactive) | > 100 µM (inactive) | > 100 µM (inactive) | > 100 µM (inactive) | > 100 µM (inactive) | > 100 µM (inactive) | > 100 µM (inactive) | 62.1 µM (inactive) | > 100 µM (inactive) |
